Test results: patent publication US4753953A, “Pyridonecarboxylic acid derivatives and antibacterial pharmaceutical compositions thereof” (priority 1985, dated 1988)
Values after ≈ are worked out from the molar mass of the structure shown. Like-named read-outs stand apart in the source and are kept apart here.

How the values were obtained:
F. varium KYA 8501 = experiment: MIC, in vitro antibacterial activity (standard strains); assay type: cell-based; settings: Fusobacterium varium, KYA8501; 10^6 cells/ml; Gram -; read-out: MIC
B. distasonis 8503 = experiment: as above; assay type: cell-based; settings: Parabacteroides distasonis, 8503; 10^6 cells/ml; Gram -; read-out: MIC
F. necrophorum S-45 = experiment: as above; assay type: cell-based; settings: Fusobacterium necrophorum, S45; 10^6 cells/ml; Gram -; read-out: MIC
E. coli ML 4707 [1] = experiment: as above; assay type: cell-based, Escherichia coli; settings: Escherichia coli
[2] = system: Proteus vulgaris IFO 3167; experiment: as above; assay type: cell-based; settings: Proteus vulgaris, IFO3167; 10^6 cells/ml; Gram -; read-out: MIC
Pst. micros UPI 5464-1 = experiment: as above; assay type: cell-based; settings: Parvimonas micra, UPI54641; 10^6 cells/ml; Gram +; read-out: MIC
B. fragilis 0558 = experiment: as above; assay type: cell-based, Bacteroides fragilis; settings: Bacteroides fragilis, 0558; 10^6 cells/ml; Gram -; read-out: MIC
S. pneumoniae S-4288 [3] = experiment: MIC of the infecting strain S. pneumoniae S-4288; assay type: cell-based; settings: Streptococcus pneumoniae, S4288; Table 4, strain of the mouse infection
E. coli ATCC 10536 = experiment: MIC, in vitro antibacterial activity (standard strains); assay type: cell-based, Escherichia coli; settings: Escherichia coli, ATCC10536; 10^6 cells/ml; Gram -; read-out: MIC
B. vulgatus KYA 29327 = experiment: as above; assay type: cell-based; settings: Phocaeicola vulgatus, KYA29327; 10^6 cells/ml; Gram -; read-out: MIC
[4] = system: Serratia marcescens IID 618; experiment: as above; assay type: cell-based; settings: Serratia marcescens, IID618; 10^6 cells/ml; Gram -; read-out: MIC
E. coli ML 4707 [5] = experiment: Therapeutic efficacy against systemic infections in mice, E. coli ML 4707; settings: Escherichia coli, ML4707, in Mus musculus, po, 1 h
E. limosum KYA 8486 = experiment: MIC, in vitro antibacterial activity (standard strains); assay type: cell-based; settings: Eubacterium limosum, KYA8486; 10^6 cells/ml; Gram +; read-out: MIC
S. epidermidis IID 866 = experiment: as above; assay type: cell-based; settings: Staphylococcus epidermidis, IID866; 10^6 cells/ml; Gram +; read-out: MIC
C. ramosum = experiment: as above; assay type: cell-based; settings: Thomasclavelia ramosa; 10^6 cells/ml; Gram +; read-out: MIC
S. pneumoniae S-4288 [6] = experiment: Therapeutic efficacy against systemic infections in mice, S. pneumoniae S-4288; settings: Streptococcus pneumoniae, S4288, in Mus musculus, po, 1 h
[7] = system: Peptococcus magnus KY 017; experiment: MIC, in vitro antibacterial activity (standard strains); assay type: cell-based; settings: Finegoldia magna, KY017; 10^6 cells/ml; Gram +; read-out: MIC
[8] = system: Bacillus subtilis PCI 219; experiment: as above; assay type: cell-based; settings: Bacillus subtilis, PCI219; 10^6 cells/ml; Gram +; read-out: MIC
[9] = system: Streptococcus pyogenes (S-8); experiment: as above; assay type: cell-based; settings: Streptococcus pyogenes; 10^6 cells/ml; Gram +; read-out: MIC
[10] = system: Clostridium difficile I-E; experiment: as above; assay type: cell-based; settings: Clostridioides difficile; 10^6 cells/ml; Gram +
MR S. aureus KYB 623 [11] = experiment: Therapeutic efficacy against systemic infections in mice, MR S. aureus KYB 623; settings: Staphylococcus aureus, in Mus musculus, po, 1 h
MR S. aureus KYB 623 [12] = experiment: MIC of the infecting strain MR S. aureus KYB 623; assay type: cell-based; settings: Staphylococcus aureus; Table 3, strain of the mouse infection
[13] = ML4707, 10^6 cells/ml, Gram -, Table 1, read-out: MIC

SMILES | MIC (F. varium KYA 8501) [µg/mL] | MIC (B. distasonis 8503) [µg/mL] | MIC (F. necrophorum S-45) [µg/mL] | MIC [2] [µg/mL] | MIC (Pst. micros UPI 5464-1) [µg/mL] | MIC (B. fragilis 0558) [µg/mL] | MIC (E. coli ATCC 10536) [µg/mL] | MIC (B. vulgatus KYA 29327) [µg/mL] | MIC [4] [µg/mL] | MIC (E. limosum KYA 8486) [µg/mL] | MIC (S. epidermidis IID 866) [µg/mL] | MIC (C. ramosum) [µg/mL] | MIC [7] [µg/mL] | MIC [8] [µg/mL] | MIC [9] [µg/mL] | MIC (E. coli ML 4707 [1]; [13]) [µg/mL] | MIC [10] [µg/mL] | further results
CC1CN(c2c(F)cc3c(=O)c(C(=O)O)cn(C4CC4)c3c2F)CC1N.Cl (stereo not shown) [Example 11, 7-(3-Amino-4-methyl-1-pyrrolidinyl)-1-cyclopropyl-6,8-difluoro-1,4-dihydro-4-oxo-3-quinolinecarboxylic acid hydrochloride] | 1.56 | 0.78 | 0.39 | 0.025 | 0.39 | 0.39 | 0.025 | 0.39 | 0.05 | 0.78 | 0.1 | 1.56 | 0.2 | 0.025 |  |  |  | MIC (E. coli ML 4707 [1]; ML4707): 0.0125 µg/mL; MIC (E. coli ML 4707 [1]; ML4707, Table 2, strain of the mouse infection, read-out: MIC): 0.025 µg/mL; MIC (S. pneumoniae S-4288 [3]): 0.2 µg/mL; ED50 (E. coli ML 4707 [5]): 1 mg/kg; ED50 (S. pneumoniae S-4288 [6]): 20.7 mg/kg
CCn1cc(C(=O)O)c(=O)c2cc(F)c(N3C[C@@H](N)[C@@H](C)C3)c(F)c21 (relative stereo) [Example 22, 7-(cis-3-Amino-4-methyl-1-pyrrolidinyl)-1-ethyl-6,8-difluoro-1,4-dihydro-4-oxo-3-quinolinecarboxylic acid] | 6.25 (≈ 17.8 µM) | 3.13 (≈ 8.91 µM) | 3.13 (≈ 8.91 µM) | 0.05 (≈ 0.142 µM) | 0.78 (≈ 2.22 µM) | 1.56 (≈ 4.44 µM) | 0.05 (≈ 0.142 µM) | 3.13 (≈ 8.91 µM) | 0.1 (≈ 0.285 µM) | 6.25 (≈ 17.8 µM) | 0.2 (≈ 0.569 µM) | 6.25 (≈ 17.8 µM) | 1.56 (≈ 4.44 µM) | 0.05 (≈ 0.142 µM) | 0.78 (≈ 2.22 µM) | 0.05 (≈ 0.142 µM) | 6.25 | 
C[C@H]1CN(c2cc3c(cc2F)c(=O)c(C(=O)O)cn3C2CC2)C[C@H]1N (relative stereo) [Example 33, 7-(cis-3-Amino-4-methyl-1-pyrrolidinyl)-1-cyclopropyl-6-fluoro-1,4-dihydro-4-oxo-3-quinolinecarboxylic acid] | 12.5 (≈ 36.2 µM) | 6.25 (≈ 18.1 µM) | 1.56 (≈ 4.52 µM) | 0.05 (≈ 0.145 µM) | 0.39 (≈ 1.13 µM) | 1.56 (≈ 4.52 µM) | 0.05 (≈ 0.145 µM) | 6.25 (≈ 18.1 µM) | 0.05 (≈ 0.145 µM) | 0.2 (≈ 0.579 µM) | 0.1 (≈ 0.29 µM) | 6.25 (≈ 18.1 µM) | 0.39 (≈ 1.13 µM) | 0.05 (≈ 0.145 µM) | 0.78 (≈ 2.26 µM) | 0.05 (≈ 0.145 µM) | 6.25 | 
C[C@@H]1CN(c2c(F)cc3c(=O)c(C(=O)O)cn(C4CC4)c3c2Cl)C[C@H]1N (relative stereo) [Example 17, 7-(trans-3-Amino-4-methyl-1-pyrrolidinyl)-8-chloro-1-cyclopropyl-6-fluoro-1,4-dihydro-4-oxo-3-quinolinecarboxylic acid] | 0.78 (≈ 2.05 µM) | 0.1 (≈ 0.263 µM) | 0.05 (≈ 0.132 µM) | 0.0125 (≈ 0.0329 µM) | 0.05 (≈ 0.132 µM) | 0.05 (≈ 0.132 µM) | 0.0063 (≈ 0.0166 µM) | 0.05 (≈ 0.132 µM) | 0.05 (≈ 0.132 µM) |  | 0.05 (≈ 0.132 µM) | 0.39 (≈ 1.03 µM) | 0.05 (≈ 0.132 µM) | 0.0125 (≈ 0.0329 µM) |  | 0.0063 (≈ 0.0166 µM) | 0.39 | ED50 (MR S. aureus KYB 623 [11]): 2.1 mg/kg; MIC (MR S. aureus KYB 623 [12]): 0.0125 µg/mL
